10 compounds from patent US20120165309A1, “HETERO RING DERIVATIVE” (Astellas Pharma Inc., priority 2009, published 2012) can be followed below.

For orientation: IC50 means the concentration that gives 50% inhibition.

Structures can show the parent of a compound that is named as a salt.

For one assay, the target named is T1, human PI3Kδ enzyme (Homo sapiens, UniProt O00329).
T1 construct: purchased Millipore Corporation 14-604
The assay is described as follows: PI3Kδ enzyme inhibitory activity (PI3-Kinase HTRF Assay kit). In kind it is biochemical. The settings on record: human PI3Kδ 10 ng/well, ATP 30 μM, PIP2 10 μM, room temperature 30 minutes. The method, boiled down: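 Human PI3Kδ (10 ng/well) with phosphatidylinositol-4,5-bisphosphate (10 μM), ATP (30 μM) and compound, 30 min at room temperature; stopped with EDTA/biotin-PIP3. HTRF read after overnight detection (Eu anti-GST, GST-GRP1 PH, streptavidin-APC).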
In general terms: Time-resolved FRET reads energy transfer from a long-lived donor to a nearby acceptor.

Assay [1] deals with Spleen cells (B cell proliferation). The assay is described as follows: Rat B cell proliferation inhibition test (anti-rat IgM, [3H]thymidine). Conditions: anti-rat IgM 3 μg/well, 48 hours culture, [3H]thymidine uptake. The class given is cell-based. How it is done: 4. Rat B Cell Proliferation Inhibition Test
Spleen cells (1.0×10^5 cells/well) prepared from male LEW/CrlCrlj rats (Charles River Laboratories, Japan, Inc.), mouse F(ab′)2 fragment anti-rat IgM (3 μg/well, SouthernBiotech Associates, Inc., Catalogue No. 3082-14) and the test compound dissolved in DMSO (final DMSO concentration 0.1%) were mixed in a 96-well plate using a 10% FCS-containing RPMI-1640 culture medium (total 200 μL). They were cultured in a CO2 incubator for 48 hours and [^3H]thymidine (925 GBq/mmol, Moravek Biochemicals, Inc., Catalogue No. MT6038) was added thereto at 0.037 MBq/well at 4 hours before completion of culture. Cells were harvested in a GF/C glass filter using a cell harvester, and a radioactivity on the filter was measured using a liquid scintillation counter. The IC50 value of the compound was calculated, taking the dpm (disintegration per minute) without addition of IgM as an inhibition rate of 100% and the dpm without addition of the test compound as an inhibition rate of 0%, by a logistic method.

The next assay concerns the target T2, Human PI3Kα (Homo sapiens, UniProt P42336).
T2 construct: purchased Millipore Corporation 14-602
The assay can be described thus: PI3Kα enzyme inhibitory activity (Kinase-Glo Plus luminescence). The settings on record: Human PI3Kα 12 ng/well, phosphatidylinositol 0.2 μg/well, 37° C. for 3 hours. In kind it is biochemical. (In Kinase-Glo more light means more ATP remaining.)

The next assay relates to IL-2 production. The assay is described as follows: Rat in vivo IL-2 production inhibition test (Concanavalin A induced). Conditions: po, male LEW/CrlCrlj rats, 10 mg/kg orally, 2 hours before Concanavalin A 15 mg/kg i.v., blood IL-2 at 3 hours after Concanavalin A, read-out: IL-2 production inhibition activity (inhibition rate vs vehicle control). How it is done: 3. Rat In vivo IL-2 Production Inhibition Test
For the experiment, male LEW/CrlCrlj rats (Charles River Laboratories, Japan, Inc.) (6-week old, body weight 130 to 180 g) were used. The test compound was suspended in a 0.5% methyl cellulose solution and orally administered at 5 mL/kg. IL-2 production was induced by tail vein injection of Concanavalin A (Funakoshi Corporation, Catalogue No. L-1000) at a dose of 15 mg/kg.
The test was carried out according to the protocol shown below. At 2 hours or 16 hours before administration of Concanavalin A, the test compound was orally administered to rats. At 3 hours after administration of Concanavalin A, blood was collected. The IL-2 concentration in blood was quantified using an ELISA kit (R&D Systems, Inc., Catalogue No. DY502E). An inhibition rate was calculated from the amount of IL-2 produced in a group administered with the test compound with respect to the amount of the IL-2 produced of a control group administered with a vehicle.

T1 sequence (O00329 whole entry): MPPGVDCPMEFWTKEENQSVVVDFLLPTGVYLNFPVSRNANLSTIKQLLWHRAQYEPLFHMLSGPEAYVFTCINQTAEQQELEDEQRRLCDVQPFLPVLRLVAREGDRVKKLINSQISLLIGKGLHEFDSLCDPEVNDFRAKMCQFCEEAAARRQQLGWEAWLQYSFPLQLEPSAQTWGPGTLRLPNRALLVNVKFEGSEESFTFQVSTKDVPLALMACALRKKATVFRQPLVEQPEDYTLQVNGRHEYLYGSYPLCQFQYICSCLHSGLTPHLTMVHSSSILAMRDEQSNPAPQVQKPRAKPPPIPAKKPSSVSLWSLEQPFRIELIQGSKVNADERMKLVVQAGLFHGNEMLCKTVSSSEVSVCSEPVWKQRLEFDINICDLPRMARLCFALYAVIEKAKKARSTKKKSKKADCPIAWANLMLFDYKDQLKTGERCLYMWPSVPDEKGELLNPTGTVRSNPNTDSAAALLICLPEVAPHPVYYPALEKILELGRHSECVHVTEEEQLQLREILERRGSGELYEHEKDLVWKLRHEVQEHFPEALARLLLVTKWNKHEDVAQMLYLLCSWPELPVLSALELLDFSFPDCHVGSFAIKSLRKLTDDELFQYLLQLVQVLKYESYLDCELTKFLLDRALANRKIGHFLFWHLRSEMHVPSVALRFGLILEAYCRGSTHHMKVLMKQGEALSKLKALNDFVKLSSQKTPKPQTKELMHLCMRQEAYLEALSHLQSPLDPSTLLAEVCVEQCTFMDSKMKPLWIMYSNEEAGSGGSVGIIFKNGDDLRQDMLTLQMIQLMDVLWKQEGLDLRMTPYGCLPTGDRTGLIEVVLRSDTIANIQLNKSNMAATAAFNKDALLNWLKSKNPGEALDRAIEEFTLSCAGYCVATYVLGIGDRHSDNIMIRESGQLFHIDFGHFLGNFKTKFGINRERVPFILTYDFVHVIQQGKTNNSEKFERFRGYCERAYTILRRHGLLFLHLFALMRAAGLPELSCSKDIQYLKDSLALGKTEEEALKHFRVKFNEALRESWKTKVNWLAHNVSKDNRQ
T1 sequence (P27986 whole entry partner): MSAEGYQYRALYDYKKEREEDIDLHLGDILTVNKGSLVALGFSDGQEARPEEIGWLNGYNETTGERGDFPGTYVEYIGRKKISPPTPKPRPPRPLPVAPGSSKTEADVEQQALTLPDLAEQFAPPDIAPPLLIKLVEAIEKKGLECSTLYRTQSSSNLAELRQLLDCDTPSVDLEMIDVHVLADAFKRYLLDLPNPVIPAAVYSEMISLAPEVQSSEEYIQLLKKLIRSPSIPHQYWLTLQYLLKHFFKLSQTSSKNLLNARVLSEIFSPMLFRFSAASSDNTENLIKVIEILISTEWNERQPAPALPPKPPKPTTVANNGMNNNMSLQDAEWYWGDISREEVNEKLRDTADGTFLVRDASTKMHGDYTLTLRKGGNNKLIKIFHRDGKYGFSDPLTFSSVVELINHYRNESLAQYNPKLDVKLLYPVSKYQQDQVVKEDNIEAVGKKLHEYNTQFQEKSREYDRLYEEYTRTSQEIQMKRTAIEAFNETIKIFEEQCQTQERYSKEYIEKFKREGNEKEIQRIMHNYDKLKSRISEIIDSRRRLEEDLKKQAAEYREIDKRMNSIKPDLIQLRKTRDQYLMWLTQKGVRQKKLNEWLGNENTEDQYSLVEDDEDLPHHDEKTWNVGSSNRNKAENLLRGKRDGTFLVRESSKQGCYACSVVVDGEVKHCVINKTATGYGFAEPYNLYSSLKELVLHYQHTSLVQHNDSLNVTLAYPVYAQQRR
T2 sequence (P42336 whole entry): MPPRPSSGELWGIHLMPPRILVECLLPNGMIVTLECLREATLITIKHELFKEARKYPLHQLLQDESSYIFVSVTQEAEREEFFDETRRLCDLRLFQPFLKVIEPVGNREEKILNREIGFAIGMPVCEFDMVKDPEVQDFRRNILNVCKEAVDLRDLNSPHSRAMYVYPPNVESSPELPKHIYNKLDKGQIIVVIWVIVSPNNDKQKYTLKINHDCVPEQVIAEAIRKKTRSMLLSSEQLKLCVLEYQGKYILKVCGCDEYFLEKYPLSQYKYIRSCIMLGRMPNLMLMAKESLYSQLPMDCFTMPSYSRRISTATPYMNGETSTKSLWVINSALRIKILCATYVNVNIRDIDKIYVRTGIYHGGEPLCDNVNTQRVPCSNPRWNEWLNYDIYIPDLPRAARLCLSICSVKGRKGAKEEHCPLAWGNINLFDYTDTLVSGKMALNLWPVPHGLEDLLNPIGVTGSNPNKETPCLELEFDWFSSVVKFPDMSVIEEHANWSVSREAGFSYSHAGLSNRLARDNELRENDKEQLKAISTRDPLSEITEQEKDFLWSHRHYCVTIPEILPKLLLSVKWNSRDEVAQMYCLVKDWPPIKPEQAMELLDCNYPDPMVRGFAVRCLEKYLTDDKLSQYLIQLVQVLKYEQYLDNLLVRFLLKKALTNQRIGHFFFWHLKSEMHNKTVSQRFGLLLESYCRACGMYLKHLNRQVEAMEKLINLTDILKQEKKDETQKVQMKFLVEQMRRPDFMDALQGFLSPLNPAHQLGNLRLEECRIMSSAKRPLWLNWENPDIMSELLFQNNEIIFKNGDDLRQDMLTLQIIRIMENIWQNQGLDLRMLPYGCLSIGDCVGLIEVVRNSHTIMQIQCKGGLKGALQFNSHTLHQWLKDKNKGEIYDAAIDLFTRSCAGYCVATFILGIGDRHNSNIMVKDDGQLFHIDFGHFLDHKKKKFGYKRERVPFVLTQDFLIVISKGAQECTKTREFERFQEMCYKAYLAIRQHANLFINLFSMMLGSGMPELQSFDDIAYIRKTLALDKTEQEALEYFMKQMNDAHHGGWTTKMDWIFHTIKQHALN
T2 sequence (P27986 whole entry partner): as the sequence (P27986 whole entry partner) above

Regarding `O=C1CCCN1[C@H]1CC[C@H](Nc2nc(N3CCOCC3)cc(-n3c(C(F)F)nc4ccccc43)n2)CC1` [Example 11, 1-[trans-4-({4-[2-(difluoromethyl)-1H-benzimidazol-1-yl]-6-morpholin-4-ylpyrimidin-2-yl}amino)cyclohexyl]pyrrolidin-2-one], the IC50 stood at 14 nM against human PI3Kδ enzyme, 6.1 nM in assay [1] and 930 nM on Human PI3Kα. Besides, the inhibition in vivo at 10 mg/kg in the assay with IL-2 production worked out at 80%.
Consider `FC(F)c1nc2ccccc2n1-c1cc(N2CCOCC2)nc(NC[C@H]2CC[C@H](N3CCCCC3)CC2)n1` [Example 202], for which, in the assay on IL-2 production, the inhibition in vivo at 10 mg/kg was determined as 80%.
On to `CN(C)[C@H]1CC[C@H](Nc2nc(N3CCOCC3)nc(-n3c(C(F)F)nc4ccccc43)n2)CC1` [Example 4, trans-N′-{4-[2-(difluoromethyl)-1H-benzimidazol-1-yl]-6-morpholin-4-yl-1,3,5-triazin-2-yl}-N,N-dimethylcyclohexane-1,4-diamine], for which the IC50 at human PI3Kδ enzyme came to 33 nM; in assay [1] it was 1.8 nM; on Human PI3Kα it was 2000 nM. In addition, in the assay on IL-2 production, the inhibition in vivo at 10 mg/kg came out at 83%.
As to `CN(C)CC(=O)N[C@H]1CC[C@H](Oc2cc(-n3c(C(F)F)nc4ccccc43)nc(N3CCOCC3)n2)CC1` [Example 24, N-[trans-4-({6-[2-(difluoromethyl)-1H-benzimidazol-1-yl]-2-morpholin-4-ylpyrimidin-4-yl}oxy)cyclohexyl]-N,N-dimethylglycinamide hydrochloride], the results for the IC50 (against human PI3Kδ enzyme; in assay [1]; on Human PI3Kα) were 5.2 nM, 4.2 nM and more than 3000 nM, respectively. The inhibition in vivo at 10 mg/kg in the assay with IL-2 production was 79%.
On to `CN(C)CC(=O)N[C@H]1CC[C@H](Nc2cc(-n3c(C(F)F)nc4ccccc43)nc(N3CCOCC3)n2)CC1` [Example 46], for which the IC50 at human PI3Kδ enzyme was 44 nM; in assay [1], 5.2 nM; at Human PI3Kα it was more than 3000 nM. The inhibition in vivo at 10 mg/kg in the assay with IL-2 production is 71%.
The corresponding values for `COCCN(C)[C@H]1CC[C@H](CNc2nc(N3CCOCC3)cc(-n3c(C(F)F)nc4ccccc43)n2)CC1` [Example 219] are 14 nM, 3.5 nM, 6000 nM and 78%.
For `CC(=O)N[C@H]1CC[C@H](Nc2nc(N3CCOCC3)cc(-n3c(C(F)F)nc4ccccc43)n2)CC1` [Example 194], the inhibition in vivo at 10 mg/kg with IL-2 production worked out at 89%.
In the case of `CN(C)CC(=O)N[C@H]1CC[C@H](Nc2nc(N3CCOCC3)nc(-n3c(C(F)F)nc4ccccc43)n2)CC1` [Example 40], on Human PI3Kα, the IC50 amounted to 1200 nM. In the assay with IL-2 production, the inhibition in vivo at 10 mg/kg was 94%.
As for `FC(F)c1nc2ccccc2n1-c1cc(N2CCOCC2)nc(NC[C@H]2CC[C@H](N3CCOCC3)CC2)n1` [Example 201], in the assay on IL-2 production, the inhibition in vivo at 10 mg/kg turned out to be 76%.
`CN(CCF)[C@H]1CC[C@H](CNc2nc(N3CCOCC3)cc(-n3c(C(F)F)nc4ccccc43)n2)CC1` [Example 206]: the 50% inhibitory concentration (IC50) at human PI3Kδ enzyme was found to be 4.4 nM; in assay [1] it was 4.1 nM; on Human PI3Kα it was 3300 nM. The inhibition in vivo at 10 mg/kg in the assay on IL-2 production is 83%.
